Reference: PMC12155096 (International Journal of Molecular Sciences, 2025)
Where a name gives a salt, the structure may show the parent alone.

Target: human CYP2C9 (Homo sapiens, UniProt P11712)
Assay: biochemical
Details: CYP2C9 IC50 (half-maximal inhibitory concentration)

human CYP2C9, sequence (P11712 whole entry): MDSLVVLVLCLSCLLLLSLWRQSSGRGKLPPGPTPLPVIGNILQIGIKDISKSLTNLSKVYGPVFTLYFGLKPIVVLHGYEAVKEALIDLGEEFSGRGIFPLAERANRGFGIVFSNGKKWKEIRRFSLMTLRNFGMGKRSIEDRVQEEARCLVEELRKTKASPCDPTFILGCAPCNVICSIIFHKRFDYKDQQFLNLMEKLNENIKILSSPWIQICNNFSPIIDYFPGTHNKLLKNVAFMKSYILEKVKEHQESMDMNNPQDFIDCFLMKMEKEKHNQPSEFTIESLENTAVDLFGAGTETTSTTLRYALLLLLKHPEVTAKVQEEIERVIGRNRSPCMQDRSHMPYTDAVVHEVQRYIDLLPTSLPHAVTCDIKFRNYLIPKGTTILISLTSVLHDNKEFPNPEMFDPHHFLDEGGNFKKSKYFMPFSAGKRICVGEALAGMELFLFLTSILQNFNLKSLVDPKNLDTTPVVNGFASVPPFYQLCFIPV

`CCC(=O)O[C@]1(C(=O)SCF)[C@H](C)C[C@H]2[C@@H]3C[C@H](F)C4=CC(=O)C=C[C@]4(C)[C@@]3(F)[C@@H](O)C[C@@]21C` [Fluticasone propionate] gave an IC50 of 4.84 µM.

Target: human CYP2C19 (Homo sapiens, UniProt P33261)
Assay: biochemical
Details: CYP2C19 AC50 (half-maximal activity concentration)

human CYP2C19, sequence (P33261 whole entry): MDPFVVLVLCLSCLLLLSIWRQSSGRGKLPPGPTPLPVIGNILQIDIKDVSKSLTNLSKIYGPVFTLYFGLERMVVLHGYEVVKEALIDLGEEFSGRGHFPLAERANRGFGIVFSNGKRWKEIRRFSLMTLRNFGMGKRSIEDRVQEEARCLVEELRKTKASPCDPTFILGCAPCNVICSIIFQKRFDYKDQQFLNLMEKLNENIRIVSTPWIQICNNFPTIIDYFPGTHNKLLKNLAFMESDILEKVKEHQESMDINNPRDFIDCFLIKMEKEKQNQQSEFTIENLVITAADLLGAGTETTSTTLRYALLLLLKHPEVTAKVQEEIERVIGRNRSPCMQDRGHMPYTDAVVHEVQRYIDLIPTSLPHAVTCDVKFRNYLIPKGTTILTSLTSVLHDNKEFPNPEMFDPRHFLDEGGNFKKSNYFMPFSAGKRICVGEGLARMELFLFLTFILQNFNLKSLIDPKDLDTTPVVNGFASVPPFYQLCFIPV

In order of falling AC50:
1. CN1CCC(=C2c3ccccc3CC(=O)c3sccc32)CC1 [Ketotifen]  37.5 µM
2. CN1CCC(=C2c3ccccc3C=Cc3ccccc32)CC1 [Cyproheptadine hydrochloride]  21.5 µM

Same assay, conditions: CYP2C19 IC50 (half-maximal inhibitory concentration)

In order of falling IC50:
1. CC(Cc1ccccc1)NCCn1cnc2c1c(=O)n(C)c(=O)n2C (stereo not drawn) [Fenethylline hydrochloride]  85.1 µM
2. OC(CCN1CCCCC1)(c1ccccc1)C1CCCCC1 (stereo not drawn) [Trihexyphenidyl hydrochloride]  17.2 µM

Target: human CYP2D6 (Homo sapiens, UniProt P10635)
Sequence (P10635 whole entry): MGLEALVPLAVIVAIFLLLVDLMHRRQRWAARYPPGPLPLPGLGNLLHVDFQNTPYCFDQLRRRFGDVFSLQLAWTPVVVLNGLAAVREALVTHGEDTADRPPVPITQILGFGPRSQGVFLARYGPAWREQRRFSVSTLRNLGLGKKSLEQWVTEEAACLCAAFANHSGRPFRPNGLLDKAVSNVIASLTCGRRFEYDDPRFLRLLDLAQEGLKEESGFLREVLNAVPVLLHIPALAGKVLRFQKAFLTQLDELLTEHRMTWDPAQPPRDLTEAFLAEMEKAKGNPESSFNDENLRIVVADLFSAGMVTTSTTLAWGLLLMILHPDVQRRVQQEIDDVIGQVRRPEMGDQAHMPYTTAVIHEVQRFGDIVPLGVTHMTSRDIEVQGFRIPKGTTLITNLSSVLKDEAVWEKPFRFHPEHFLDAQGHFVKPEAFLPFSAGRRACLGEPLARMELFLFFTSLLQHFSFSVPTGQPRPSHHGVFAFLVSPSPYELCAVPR
Assay: biochemical
Details: not given

`Cc1nc(N)nc(N)c1-c1ccc(Cl)c(Cl)c1` [Methodichlorophen] was tested, and the AC50 was 2.3 ± 0.41 µM.

In order of rising IC50:
1. CC(CCc1ccccc1)NCC(O)c1ccc(O)c(C(N)=O)c1 (stereo not drawn) [labetalol, reference compound]  0.6 µM
2. CC[C@@H]([C@H](C)O)n1ncn(-c2ccc(N3CCN(c4ccc(OC[C@@H]5CO[C@@](Cn6cncn6)(c6ccc(F)cc6F)C5)cc4)CC3)cc2)c1=O [Posaconazole]  11.3 ± 3.6 µM

Same assay, conditions: CYP2D6 AC50 (half-maximal activity concentration)

In order of falling AC50:
1. CC[N+](CC)(CC)CCOc1ccc(/C=C/c2ccccc2)cc1 [Stilonium iodide]  15.5 µM
2. COc1ccccc1N1CCN(CCCNc2cc(=O)n(C)c(=O)n2C)CC1 [Urapidil hydrochloride]  14 µM
3. CN1CCC(=C2c3ccccc3C=Cc3ccccc32)CC1 [Cyproheptadine hydrochloride]  2.67 µM
4. CN1CCC(=C2c3ccccc3CC(=O)c3sccc32)CC1 [Ketotifen]  2.2 µM
5. CC(C)[N+](C)(CCOC(=O)C1c2ccccc2Oc2ccccc21)C(C)C [Propantheline bromide]  0.19 µM
6. OC(CN1CCC(Cc2ccc(F)cc2)CC1)c1ccc(Cl)cc1 (stereo not drawn) [Eliprodil]  0.12 µM

Same assay, conditions: CYP2D6 IC50 (half-maximal inhibitory concentration)

In order of falling IC50:
1. CCN(CC)CCN1C(=O)CN=C(c2ccccc2F)c2cc(Cl)ccc21 [Flurazepam]  15.6 µM
2. CCC(=O)O[C@]1(C(=O)SCF)[C@H](C)C[C@H]2[C@@H]3C[C@H](F)C4=CC(=O)C=C[C@]4(C)[C@@]3(F)[C@@H](O)C[C@@]21C [Fluticasone propionate]  13 µM
3. CCOc1ccccc1OCCN[C@H](C)Cc1ccc(OC)c(S(N)(=O)=O)c1 [Tamsulosin hydrochloride]  12.8 µM
4. CC(Cc1ccccc1)NCCn1cnc2c1c(=O)n(C)c(=O)n2C (stereo not drawn) [Fenethylline hydrochloride]  5.37 µM
5. CC1CCCC(C)N1CCCC(O)(c1ccccc1)c1ccccn1 (stereo not drawn) [Pirmenol]  0.92 µM
6. CC[N+](C)(CC)CCOC(=O)C(O)(c1ccccc1)C1CCCCC1 (stereo not drawn) [Oxyphenonium bromide]  0.87 µM
7. OC(CCN1CCCCC1)(c1ccccc1)C1CCCCC1 (stereo not drawn) [Trihexyphenidyl hydrochloride]  0.76 µM
8. OC(CN1CCC(Cc2ccc(F)cc2)CC1)c1ccc(Cl)cc1 (stereo not drawn) [Eliprodil]  0.12 µM
9. CC(C)[N+](C)(CCOC(=O)C1c2ccccc2Oc2ccccc21)C(C)C [Propantheline bromide]  0.09 µM

Same assay, conditions: IC50 CYP2D6 assay

For `CC(CN(C)C)CN1c2ccccc2CCc2ccccc21` (stereo not drawn) [trimipramine, reference compound], the IC50 was 3.1 µM.
